For orientation: Cmax means the highest concentration seen after dosing. As a reminder, the Tmax is the time at which the peak concentration occurs.

The values below come from patent publication US20210299079A1, “MONOMETHYL FUMARATE-CARRIER CONJUGATES AND METHODS OF THEIR USE” (Flagship Pioneering Innovations V, Inc., priority 2018, published 2021).

Structures can show the parent of a compound that is named as a salt.

One data set deals with T1, AhR (Homo sapiens, UniProt P35869).
T1 sequence (P35869 11-848): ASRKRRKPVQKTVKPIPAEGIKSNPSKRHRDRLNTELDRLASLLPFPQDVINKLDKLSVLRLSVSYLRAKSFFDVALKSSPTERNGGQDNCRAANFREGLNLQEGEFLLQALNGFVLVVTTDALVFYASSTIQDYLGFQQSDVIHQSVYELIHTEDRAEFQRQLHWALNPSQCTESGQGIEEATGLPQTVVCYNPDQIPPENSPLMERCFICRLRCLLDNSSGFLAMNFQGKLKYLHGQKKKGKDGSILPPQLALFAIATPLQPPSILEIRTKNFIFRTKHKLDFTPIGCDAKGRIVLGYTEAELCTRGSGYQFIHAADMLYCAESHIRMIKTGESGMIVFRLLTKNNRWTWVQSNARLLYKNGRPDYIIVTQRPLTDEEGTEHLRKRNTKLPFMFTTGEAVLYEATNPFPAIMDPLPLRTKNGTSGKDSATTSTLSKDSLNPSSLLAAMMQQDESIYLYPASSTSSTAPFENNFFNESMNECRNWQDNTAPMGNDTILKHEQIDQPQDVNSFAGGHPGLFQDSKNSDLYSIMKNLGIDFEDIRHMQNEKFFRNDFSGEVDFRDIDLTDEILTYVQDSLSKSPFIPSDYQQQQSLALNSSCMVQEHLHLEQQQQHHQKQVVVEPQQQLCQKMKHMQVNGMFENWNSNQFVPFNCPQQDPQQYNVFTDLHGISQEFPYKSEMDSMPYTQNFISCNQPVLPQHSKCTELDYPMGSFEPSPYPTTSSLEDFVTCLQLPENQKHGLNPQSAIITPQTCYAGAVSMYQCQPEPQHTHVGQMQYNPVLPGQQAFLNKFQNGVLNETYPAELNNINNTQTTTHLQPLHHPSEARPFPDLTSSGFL
Briefly: AhR Activation in Caco-2 Cells Through CYP1A1 mRNA Expression. Conditions: overnight. The method, then:
Caco-2 cells from American Type Culture Collection (ATCC) were plated in a sterile tissue culture treated 96-well plate (ThermoFisher) at 8.0×10^5 cells per well, and grown overnight at 37° C., 5% CO2 in DMEM complete (Gibco) in order to achieve confluence. After the incubation medium was aspirated off of the Caco-2 monolayers, tissues were then washed with 200 μL of warmed PBS solution, and subsequently 190 μL of pre-warmed growth medium was added to each well. Compounds of interest were diluted at a 20× concentration in growth medium containing 2% DMSO, and 10 μL of compound solutions were added to respective wells in triplicate. Compounds where incubated overnight at 37° C., 5% CO2. 2-(1′H-indole-3′-carbonyl)-thiazole-4-carboxylic acid methyl ester (ITE) was used as the positive control for AhR activation at 1 and 100 μM concentrations. At the end of the incubation, medium was aspirated off of the Caco-2 cells, and washed with 100 μL of cold PBS solution. RNA was extracted via the TaqMan™ Gene Expression Cells-to-CT™ Kit (ThermoFisher) according to the manufacturer's protocol. The QuantStudio 6 Flex (Applied Biosciences) was used to analyze mRNA levels of CYP1A1 using GAPDH as the endogenous control. TaqMan™ probe sets for both genes were acquired from ThermoFisher. Samples were run in triplicate and data was analyzed using the QuantStudio software and reported as linear (Table 6) and log 2(ΔΔCT) values. Statistical analysis was performed using a two-tailed t-test comparing CYP1A1 levels in the presence of each individual compound to the vehicle negative control.

For a further data set, the system named is Caco-2 colonocytes. Briefly: Human Caco-2 Barrier Integrity Assay, Study 1. In kind it is cell-based. Particulars: Caco-2, + cytokines (TNFα, IFNγ, IL-1β), 48 hours. The method, then: Caco-2 colonocytes were maintained at 37° C. and 5% CO2 in Dulbecco's Modified Eagle Medium (DMEM) and supplemented with 10% FBS, 1% NEAA, 1% penicillin-streptomycin. At 70-80% confluency, cells were trypsinized and seeded in 0.4 cm^2 transwell collagen I coated membranes with supplemented DMEM in both apical and basolateral compartments. […] After 48 hours, TEER readings were taken again and viability was measured by CellTiter 96® AQueous One Solution Cell Proliferation Assay (Promega).

A further data set relates to naïve CD4+ T cells. Briefly: Human Regulatory T Cell Differentiation Assay. In kind it is cell-based. Particulars: 6 days; for Cell viability % DMSO: viability dye. The method, then:
Peripheral blood mononuclear cells (PBMCs) from whole blood donated by health volunteers were separated by Ficoll-Paque gradient centrifugation and naïve CD4^+ T cells were subsequently isolated using magnet beads (EasySep™ Human Naïve CD4^+ T Cell Isolation Kit, Cambridge, Mass.). For regulatory T cell (Treg) differentiation assay, naïve CD4^+ T cells were cultured (1-10×10^4 cells) in CTS OpTmizer medium for 6 days and stimulated with 5 ng/ml TGF-β, 100 U/ml IL-2, and ImmunoCult™ Human […] T Cell Activator; Stemcell #10990) with/without our Compounds. Cell viability was determined using a viability dye (eBioscience Fixable Viability Dye eFluor 780: ThermoFisher 65-0865-14) at 1:500 dilution. The cells were gated for Treg, defined as Live, CD11c^−, CD14^−, CD19^−, CD8^−, CD4^+, CD3^+, CD25^+, FOXP3^+. Percent (%) Tregs were calculated as percentage of CD4^+, CD25^+, FOXP3^+ cells over total CD4^+ T cells. Statistical analysis was performed with GraphPad Prism Software Using One-Way ANOVA.

For the next data set, the system named is MIP-1β. The data set can be described thus: Neutrophil Chemokine Production Assay: MIP-1β. Type of data set: cell-based. Conditions: human neutrophils, 12 h. How it is done:
(§1) A volume 25 mL of human blood was layered over 15 mL of Histopaque®-1077 and centrifuged at 500 g, R^T, for 30 min with no break applied to the centrifuge. The PBMC band and Histopaque®-1077 layer were removed leaving behind the bottom red layer which was mixed with 40 mL of 1× red blood cell (RBC) lysis buffer (Sigma-Aldrich) was and split into two 50 mL tubes. The volume for both fractions was brought to 50 mL with RBC lysis buffer, mixed by inversion, and then incubated at RT for 10 min. Solutions were centrifuged at 250 g, for 10 min at RT and the supernatant liquids removed. The reddish pellets were re-suspended in 1 mL of RBC lysis buffer and combined. The cell suspension was incubated for 5 min at RT in RBC lysis buffer. After incubation 45 mL of Hanks Balanced Salt Solution with no calcium, magnesium or phenol red (HBSS—) was added, the cell suspension was spun (250 g for 10 min at RT), and supernatant liquids were removed. The white pellet was re-suspended in 1 mL of HBSS—, and cell counts were determined. The neutrophil cell suspension was brought to a concentration of 1.11e6 cells/mL in RPMI complete (Sigma-Aldrich), and 180 μL of cell suspension was transferred to all wells within a sterile 96-well tissue culture treated plate resulting in 2.0×10^5 cells/well. […] After incubation, 10 μL of 2 μg/mL LPS solution in RPMI complete was added to each well except for control wells, which received an additional 10 μL of media. Cells were incubated for 12 h (37° C., 5% CO2), after which plates were centrifuged at 250 g, RT, for 5 min and supernatant liquids were obtained and stored at −80° C. until analyzed via Luminex® Multiplex Assay for various chemokines and cytokines. Three data points were acquired from two different blood donors and averaged.

Another data set has as its system IL-8. Briefly: Neutrophil Chemokine Production Assay: IL-8. Type of data set: cell-based. Conditions: human neutrophils, 12 h. How it is done:
as §1

The subject of a further data set is MIP-1α. The data set can be described thus: Neutrophil Chemokine Production Assay: MIP-1α. Conditions: human neutrophils, 12 h. Type of data set: cell-based. How it is done:
as §1

For data set [1] the following is noted: male, Sprague Dawley, rat, in vivo, po.
Method: The amount of compound dosed was normalized to provide approximately equimolar amounts of monomethylfumarate. Approximately 150 μL whole blood samples were collected at 15 and 30 min; and 1, 2, 4, 8, and 24 h post-dosing from the jugular or tail vein. 100 μL of samples were added to K2EDTA tubes pre-filled with 300 μL of 100 mM tiopronin in 100 mM ammonium bicarbonate (pH 9.0). Samples were vortex-mixed for approximately 5 min at ambient temperature in order to trap free fractions of monomethyl fumarate.
A further data set has as its system TNFα. Briefly: Cytokine Release from Human PBMCs: TNFα. Particulars: LPS, 24 hours, Concentration 100 μM. Type of data set: cell-based. The method, then:
(§2) Human donor blood (8 mL) was collected in sodium citrate CPT tubes and centrifuged at 1,600×g for 20 minutes at room temperature. Buffy coat containing PBMCs was collected and transferred to a 50 mL conical tube containing 30 mL of RPMI-1640 medium at room temperature (supplemented with penicillin-streptomycin). PBMCs samples were centrifuged at 400×g for 10 minutes at 10° C. The pelleted PBMCs were washed twice in 10 ml of RPMI-1640 medium (supplemented with penicillin-streptomycin), then resuspended in RPMI-1640 medium (supplemented with penicillin-streptomycin, fetal bovine serum, and L-Glutamine). PBMCs were filtered through a 70 micron mesh to remove any cellular debris. […] PBMCs in a 96-well plate were rested for 30 minutes in a 37° C., 5% CO2 incubator, then subsequently treated with 10 μI of indicated compound. After 2 hours 10 μL of LPS (0111:64) 1 mg/mL was added to test wells. After 24 hours of incubation at 37° C., 5% CO2, 100 μL of cell supernatant was collected and transferred to a 96-well plate (non-tissue treated, flat bottom). The plate was centrifuged at 350×g for 5 minutes at room temperature, and then the clear supernatant transferred to a new 96-well plate (non-tissue treated, flat bottom). The remaining cells were tested for viability using CellTiter-Glo® Luminescent Cell Viability Assay (Promega). The supernatant was analyzed for TNFα, IL-6 and IL-1β (kit […] Systems), using Luminex Immunoassay Technology (MAGPIX System).

The subject of another data set is IL-1β. The data set can be described thus: Cytokine Release from Human PBMCs: IL-1β. Particulars: LPS, 24 hours, Concentration 100 μM. In kind it is cell-based. The method, then:
as §2

A further data set concerns IL-6. The data set can be described thus: Cytokine Release from Human PBMCs: IL-6. Particulars: LPS, 24 hours, Concentration 100 μM. In kind it is cell-based. The method, then: as §2

Take `O=C(O[C@@H]1Cc2c(O)cc(O)cc2O[C@@H]1c1cc(O)c(O)c(O)c1)c1cc(O)c(O)c(O)c1` [epigallocatechin gallate]: the “Average CYP1A1 mRNA levels” value at AhR (Conc. 0.1 μM) and on AhR (Conc. 1.0 μM) was “− (− = <2-fold Vehicle)” in each case. Moreover, the “% Change in TEER from DMSO” value in the data set on Caco-2 colonocytes (100 nM) and with Caco-2 colonocytes (1 μM) was “− (<125%: −)” each time. Moreover, the “Treg induction % DMSO” value in the data set on naïve CD4+ T cells (TGF-β, IL-2, 100 nM) is reported as “= (90% > <110%: =)”; with naïve CD4+ T cells (TGF-β, IL-2, 1 μM), “= (90% > <110%: =)”. Besides, the “Cell viability % DMSO” value in the data set on naïve CD4+ T cells (100 nM) and in the data set with naïve CD4+ T cells (1 μM) was “= (90% > <110%: =)” throughout. Besides, the “% MIP-1β (DMSO + LPS = 100%)” value in the data set on MIP-1β (Conc. 0.1 μM) and in the data set on MIP-1β (Conc. 1.0 μM) was “− (− = >90% Vehicle)” each time. Besides, the “% IL-8 (Vehicle + LPS = 100%)” value in the data set with IL-8 (Conc. 0.1 μM) and with IL-8 (Conc. 1.0 μM) was “− (− = >90% Vehicle)” in each case. Also, the “% MIP-1α (Vehicle + LPS = 100%)” value with MIP-1α (Conc. 0.1 μM) and with MIP-1α (Conc. 1.0 μM) was “− (− = >90% Vehicle)” throughout.
Turning to `c1ccc2[nH]ccc2c1` [indole], on AhR (Conc. 1000.0 μM), the “Average CYP1A1 mRNA levels” value is on record as “+ (+ = >2-fold Vehicle)”.
Turning to `COC(=O)/C=C/C(=O)OCCN1C(=O)CCC1=O` [Diroximel Fumarate, diroximel fumarate], in [1], the AUClast was found to be 9381 ng·h/mL, the Cmax came to 17251 ng/mL and the Tmax was found to be 15 min.
Take `Oc1ccc(C=Cc2cc(O)cc(O)c2)cc1` [resveratrol]: the “% Change in TEER from DMSO” value in the data set on Caco-2 colonocytes (10 μM) is given as “− (<125%: −)”; with Caco-2 colonocytes (100 μM), “+++ (200%>: +++)”. For the same compound, in the data set on TNFα, the “TNFα % of DMSO control” value is “+ ((+) 50% > <90% DMSO)”. Also, the “IL1β % DMSO control” value with IL-1β is listed as “= ((=) 90% > <110% DMSO)”. In addition, the “Cell viability % DMSO” value with naïve CD4+ T cells (1 μM) and in the data set on naïve CD4+ T cells (10 μM) was “− (<90%: −)” throughout. In addition, the activity at 1 µM in the data set on naïve CD4+ T cells (Homo sapiens, 144 h, TGF-β, IL-2, 1 μM, read-out: Treg induction % DMSO) lay within 110 to 130%. The activity at 10 µM with naïve CD4+ T cells (Homo sapiens, 144 h, TGF-β, IL-2, 10 μM, read-out: Treg induction % DMSO) fell in the range of 110 to 130%. Moreover, the “% MIP-1β (DMSO + LPS = 100%)” value with MIP-1β (Conc. 10.0 μM) is given as “++ (++ = <70% Vehicle)”. Further, in the data set on IL-6, the “IL6 % DMSO control” value is listed as “+ ((+) 50% > <90% DMSO)”. Besides, the “% IL-8 (Vehicle + LPS = 100%)” value in the data set with IL-8 (Conc. 10.0 μM) is listed as “− (− = >90% Vehicle)”. Also, the “% MIP-1α (Vehicle + LPS = 100%)” value in the data set on MIP-1α (Conc. 10.0 μM) was “+ (+ = <90% Vehicle)”.
For `CC(O)CCO` (centres unmarked) [butanediol], on AhR (Conc. 500.0 μM), the “Average CYP1A1 mRNA levels” value is “− (− = <2-fold Vehicle)”.
Regarding `COC(=O)c1csc(C(=O)c2c[nH]c3ccccc23)n1` [ITE, 2-(1′H-indole-3′-carbonyl)-thiazole-4-carboxylic acid methyl ester, reference compound], at AhR (Conc. 1.0 μM), the “Average CYP1A1 mRNA levels” value is “+++ (+++ = >10-fold Vehicle)”.
